In article PMC11649115, “In vitro safety evaluation of dopamine D3R antagonist, R-VK4-116, as a potential medication for the treatment of opioid use disorder” (PLOS ONE, 2024):
Where “and” joins values, the source holds several entries; their conditions need not be identical. Identical values can stand only once. Like-named read-outs stand apart in the source and are kept apart here.

Tests used:
human hepatocytes = assay: MTT assay, hepatocyte viability; type: cell-based
OATP1B3 = molecular target: T1, OATP1B3 (Homo sapiens, UniProt Q9NPD5); assay: Transporter mediated assay (substrate/inhibitor), MDCK-II cells; type: in vitro ADME
T1 construct: expressed in transfected cells; host or cells: MDCK-II cells
T1 sequence (Q9NPD5 1-702): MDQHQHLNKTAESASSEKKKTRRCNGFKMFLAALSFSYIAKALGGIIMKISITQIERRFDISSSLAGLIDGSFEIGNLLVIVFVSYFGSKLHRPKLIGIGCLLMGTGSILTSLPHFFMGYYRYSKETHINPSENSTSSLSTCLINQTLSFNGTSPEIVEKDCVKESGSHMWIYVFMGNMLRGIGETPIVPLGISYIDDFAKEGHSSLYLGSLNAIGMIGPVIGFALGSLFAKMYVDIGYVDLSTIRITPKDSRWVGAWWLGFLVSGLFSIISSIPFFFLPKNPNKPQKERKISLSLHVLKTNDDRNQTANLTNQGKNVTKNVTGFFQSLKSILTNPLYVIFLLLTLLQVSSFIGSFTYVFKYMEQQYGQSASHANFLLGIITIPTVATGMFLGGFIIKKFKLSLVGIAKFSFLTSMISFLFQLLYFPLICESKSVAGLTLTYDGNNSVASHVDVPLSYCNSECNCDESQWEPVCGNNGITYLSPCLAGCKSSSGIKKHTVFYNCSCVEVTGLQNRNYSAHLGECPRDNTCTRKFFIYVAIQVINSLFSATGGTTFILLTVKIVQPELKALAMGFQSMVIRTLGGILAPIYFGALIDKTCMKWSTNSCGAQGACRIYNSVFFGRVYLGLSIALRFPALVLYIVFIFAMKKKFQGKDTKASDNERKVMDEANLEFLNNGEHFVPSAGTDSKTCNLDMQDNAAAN
Experimental: The MDCK-II cells were treated to express the transporter of interest. The transport of each probe substrate was determined by radiometric detection (Fig 1 in S1 File). […] For the uptake assay, the net transporter-mediated uptake-rate (V) of the substrate by each SLC transporter was calculated as follows: Transporter–mediatedupdaterate(pmol/min/cm^2)=(Cellularaccumulationincellsexpressingthetransporter)−(Meancellularaccumulationincontrolcells)/Surfacearea×incubationtime
Fold of activity and percent inhibition were determined as follows: Foldofactivity=(Meanuptakerate)transporterexpressingcells/(Meanuptakerate)controlcells Percentinhibition=100−100×(Transport‐mediatedupdaterate)withinhibitor/(Transport‐mediatedupdaterate)vehiclecontrol

P-gp = molecular target: T2, P-gp (Homo sapiens, UniProt P08183); assay: as above; type: in vitro ADME; conditions: human
T2 construct: expressed in transfected cells; host or cells: MDCK-II cells
T2 sequence (P08183 whole entry): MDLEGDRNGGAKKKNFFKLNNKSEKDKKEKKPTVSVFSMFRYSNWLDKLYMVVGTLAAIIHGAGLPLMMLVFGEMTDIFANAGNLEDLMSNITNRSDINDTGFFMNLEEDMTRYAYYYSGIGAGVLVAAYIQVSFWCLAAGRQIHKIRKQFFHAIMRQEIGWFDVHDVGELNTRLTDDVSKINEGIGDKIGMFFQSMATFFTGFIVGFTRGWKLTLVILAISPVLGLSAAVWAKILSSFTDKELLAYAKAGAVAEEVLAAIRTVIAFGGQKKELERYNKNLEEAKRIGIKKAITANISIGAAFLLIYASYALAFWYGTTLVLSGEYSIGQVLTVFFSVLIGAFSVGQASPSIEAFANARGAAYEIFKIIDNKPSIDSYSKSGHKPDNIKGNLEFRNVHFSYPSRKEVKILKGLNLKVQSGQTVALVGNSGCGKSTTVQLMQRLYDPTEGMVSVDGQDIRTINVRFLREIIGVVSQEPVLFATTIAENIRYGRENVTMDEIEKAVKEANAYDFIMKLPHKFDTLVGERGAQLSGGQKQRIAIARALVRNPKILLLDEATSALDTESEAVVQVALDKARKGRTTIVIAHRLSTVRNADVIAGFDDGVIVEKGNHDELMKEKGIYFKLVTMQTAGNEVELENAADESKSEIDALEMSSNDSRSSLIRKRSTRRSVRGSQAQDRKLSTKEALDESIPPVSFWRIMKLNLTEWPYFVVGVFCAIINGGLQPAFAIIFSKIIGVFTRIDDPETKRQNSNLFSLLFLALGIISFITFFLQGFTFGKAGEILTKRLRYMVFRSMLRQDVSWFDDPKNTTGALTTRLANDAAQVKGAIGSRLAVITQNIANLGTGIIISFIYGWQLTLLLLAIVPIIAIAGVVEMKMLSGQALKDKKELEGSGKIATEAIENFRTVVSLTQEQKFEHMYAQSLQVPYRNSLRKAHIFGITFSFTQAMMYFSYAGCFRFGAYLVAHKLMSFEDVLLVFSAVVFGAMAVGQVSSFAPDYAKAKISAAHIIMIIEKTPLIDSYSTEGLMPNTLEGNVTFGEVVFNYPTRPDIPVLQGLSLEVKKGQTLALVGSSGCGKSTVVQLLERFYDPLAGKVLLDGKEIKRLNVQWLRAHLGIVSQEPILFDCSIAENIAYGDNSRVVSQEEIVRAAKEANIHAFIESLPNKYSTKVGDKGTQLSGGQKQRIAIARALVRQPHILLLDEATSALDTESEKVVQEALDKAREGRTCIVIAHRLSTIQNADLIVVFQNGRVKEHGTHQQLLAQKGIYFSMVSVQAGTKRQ
Experimental: The MDCK-II cells were treated to express the transporter of interest.
For BCRP and P-gp, the apparent permeability Papp and Efflux Ratio (ER) were calculated [16]. Net basal (B) to apical (A) flux (B → A) of the substrate transport (pmol/min/cm^2) by BCRP or P-gp was calculated by subtracting A → B flux from B → A flux.

[1] = Plasma protein binding, Sephadex G-25 gel filtration; type: in vitro ADME; conditions: plasma; for fraction unbound at 2 h, 0.5 μM: nominal 0.5 μM; for fraction unbound at 2 h, 1 μM: nominal 1 μM
Experimental: (§1) The gel filtration used solid-phase extraction columns containing hydrated gel filtration beads (Sephadex G-25). […] In this method, the amount of analyte accompanying the proteins (i.e., protein-bound R-VK4-116) before and after filtration was assayed for analyte concentration by LC-MS/MS.

dog plasma proteins = assay: as above; type: in vitro ADME
Experimental: as §1

rat plasma proteins = assay: as above; type: in vitro ADME
Experimental: as §1

[2] = Stability in the absence of hepatocytes; conditions: no hepatocytes
Experimental: CYP3A4 substrate Midazolam (10 μM) was prepared and incubated in the same manner. […] In addition, in vitro half-life (t1/2, min) and intrinsic clearance (CLint, μl/min/10^6 cells) were calculated [10, 11].

CYP2B6 = molecular target: T3, CYP2B6 (Homo sapiens, UniProt P20813); assay: CYP inhibition in human liver microsomes; conditions: human liver microsomes
T3 sequence (P20813 1-491): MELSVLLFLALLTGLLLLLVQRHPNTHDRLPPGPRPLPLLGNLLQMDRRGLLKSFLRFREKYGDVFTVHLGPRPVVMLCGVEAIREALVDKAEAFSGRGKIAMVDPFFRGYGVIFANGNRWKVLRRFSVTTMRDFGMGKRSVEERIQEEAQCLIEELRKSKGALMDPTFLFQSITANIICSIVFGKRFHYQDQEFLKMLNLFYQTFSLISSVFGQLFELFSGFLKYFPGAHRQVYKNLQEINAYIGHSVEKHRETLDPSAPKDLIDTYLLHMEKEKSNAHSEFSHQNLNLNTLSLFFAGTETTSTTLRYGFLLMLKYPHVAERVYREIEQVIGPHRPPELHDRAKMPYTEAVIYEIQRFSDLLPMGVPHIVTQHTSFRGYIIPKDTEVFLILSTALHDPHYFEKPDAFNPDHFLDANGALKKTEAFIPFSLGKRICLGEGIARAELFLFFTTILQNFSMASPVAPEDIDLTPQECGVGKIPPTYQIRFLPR

[3] = MDCK-MDR1, P-gp, substrate test, 1 µM
[4] = dog, read-out: % Bound, Mean ± SD (converted)
[5] = rat, read-out: % Bound (converted)
[6] = rat, read-out: % Bound, Mean ± SD (converted)

Structure (SMILES): CCc1cc(Cl)c(OC)c(N2CCN(CC(O)CCNC(=O)c3cc4ccccc4[nH]3)CC2)c1 (stereo not shown) [R-VK4-116, N-(4-(4-(3-chloro-5-ethyl-2-methoxyphenyl)piperazin-1-yl)-3-hydroxybutyl)-1H-indole-2-carboxamide]
- Hepatocyte Viability, MTT Assay Upfront (Mean) (human hepatocytes; 0.01 µM): 93
- Hepatocyte Viability, MTT Assay Upfront (Mean) (human hepatocytes; 0.1 µM): 105
- Hepatocyte Viability, MTT Assay Upfront (Mean) (human hepatocytes; 1 µM): 86
- Hepatocyte Viability, MTT Assay Upfront (Mean) (human hepatocytes; 3 µM): 91
- Hepatocyte Viability, MTT Assay Upfront (Mean) (human hepatocytes; 10 μM): 73
- Hepatocyte Viability, MTT Assay Upfront (Mean) (human hepatocytes; 30 µM): 73
- Hepatocyte Viability, Concurrent MTT Assay (Mean) (human hepatocytes; Lot 336, 0.01 µM): 96
- Hepatocyte Viability, Concurrent MTT Assay (Mean) (human hepatocytes; Lot 336, 0.10 µM): 90
- Hepatocyte Viability, Concurrent MTT Assay (Mean) (human hepatocytes; Lot 336, 1 µM): 91
- Hepatocyte Viability, Concurrent MTT Assay (Mean) (human hepatocytes; Lot 336, 3 µM): 80
- Hepatocyte Viability, Concurrent MTT Assay (Mean) (human hepatocytes; Lot 336, 5 µM): 75
- Hepatocyte Viability, Concurrent MTT Assay (Mean) (human hepatocytes; Lot 336, 10 µM): 73
- Hepatocyte Viability, Concurrent MTT Assay (Mean) (human hepatocytes; Lot 348B, 0.01 µM): 100
- Hepatocyte Viability, Concurrent MTT Assay (Mean) (human hepatocytes; Lot 348B, 0.10 µM): 101
- Hepatocyte Viability, Concurrent MTT Assay (Mean) (human hepatocytes; Lot 348B, 1 µM): 104
- Hepatocyte Viability, Concurrent MTT Assay (Mean) (human hepatocytes; Lot 348B, 3 µM): 96
- Hepatocyte Viability, Concurrent MTT Assay (Mean) (human hepatocytes; Lot 348B, 5 µM): 97
- Hepatocyte Viability, Concurrent MTT Assay (Mean) (human hepatocytes; Lot 348B, 10 µM): 102
- Hepatocyte Viability, Concurrent MTT Assay (Mean) (human hepatocytes; Lot 399, 0.01 µM): 107
- Hepatocyte Viability, Concurrent MTT Assay (Mean) (human hepatocytes; Lot 399, 0.10 µM): 104
- Hepatocyte Viability, Concurrent MTT Assay (Mean) (human hepatocytes; Lot 399, 1 µM): 95
- Hepatocyte Viability, Concurrent MTT Assay (Mean) (human hepatocytes; Lot 399, 3 µM): 88
- Hepatocyte Viability, Concurrent MTT Assay (Mean) (human hepatocytes; Lot 399, 5 µM): 86
- Hepatocyte Viability, Concurrent MTT Assay (Mean) (human hepatocytes; Lot 399, 10 µM): 91
- hepatocyte viability, concurrent MTT assay (human hepatocytes; ≤ 10 μM): no decrease of hepatocyte viability
- fold difference in mean uptake rate (substrate test) (OATP1B3; OATP1B3, 1 μM, transporter cells vs control cells): < 2 fold
- Inhibition (%) (OATP1B3; OATP1B3, 0.1% BSA, 10 μM): no statistically significant inhibition
- inhibition at 10 µM (OATP1B3; human, polarized monolayer of MDCK-II cells expressing OATP1B3, OATP1B3, 0.1% BSA, 10 μM): 5.29 ± 10.7%
- Papp A→B at 1 µM (P-gp; [3]): < 0.2 ×10⁻⁶ cm/s
- Papp B→A at 1 µM (P-gp; [3]): < 0.1 ×10⁻⁶ cm/s
- inhibition at 10 µM (P-gp; probe quinidine 0.1 μM): 56.5 ± 6.17%
- fraction unbound at 2 h, 0.5 μM [1, 4]: 0.164
- fraction unbound at 2 h, 1 μM [1, 4]: 0.173
- fraction unbound at 2 h, 0.5 μM [1, 5]: 0.164
- fraction unbound at 2 h, 0.5 μM [1, 6]: 0.168
- fraction unbound at 2 h, 1 μM [1, 5]: 0.086
- fraction unbound at 2 h, 1 μM [1, 6]: 0.072
- % Bound (dog plasma proteins; nominal 0.5 μM): 92.1% and 80.8% and 77.9%
- Ratio [R-VK4-116] Before Filtration / Eluate (dog plasma proteins; nominal 0.5 μM): 1.25 and 1.24
- Ratio [R-VK4-116] Before Filtration / Eluate, Mean ± SD (dog plasma proteins; nominal 0.5 μM): 1.25 ± 0.01
- [R-VK4-116] Before Filtration (dog plasma proteins; nominal 0.5 μM): 0.618 µM and 0.616 µM and 0.609 µM
- [R-VK4-116] In Sephadex G-25 Eluate (dog plasma proteins; nominal 0.5 μM): 0.495 µM and 0.493 µM and 0.491 µM
- % Bound (dog plasma proteins; nominal 1 μM): 73.3% and 92.5% and 82.4%
- Ratio [R-VK4-116] Before Filtration / Eluate (dog plasma proteins; nominal 1 μM): 1.68 and 1.51 and 1.77
- Ratio [R-VK4-116] Before Filtration / Eluate, Mean ± SD (dog plasma proteins; nominal 1 μM): 1.65 ± 0.13
- [R-VK4-116] Before Filtration (dog plasma proteins; nominal 1 μM): 1.05 µM and 1.07 µM
- [R-VK4-116] In Sephadex G-25 Eluate (dog plasma proteins; nominal 1 μM): 0.626 µM and 0.707 µM and 0.604 µM
- % Bound (rat plasma proteins; nominal 0.5 μM): 79.3% and 86.7%
- Ratio [R-VK4-116] Before Filtration / Eluate (rat plasma proteins; nominal 0.5 μM): 1.18 and 1.20
- Ratio [R-VK4-116] Before Filtration / Eluate, Mean ± SD (rat plasma proteins; nominal 0.5 μM): 1.19 ± 0.01
- [R-VK4-116] Before Filtration (rat plasma proteins; nominal 0.5 μM): 0.631 µM and 0.630 µM
- [R-VK4-116] In Sephadex G-25 Eluate (rat plasma proteins; nominal 0.5 μM): 0.533 µM and 0.535 µM and 0.525 µM
- % Bound (rat plasma proteins; nominal 1 μM): 93.9% and 93.2%
- Ratio [R-VK4-116] Before Filtration / Eluate (rat plasma proteins; nominal 1 μM): 1.63 and 1.60 and 1.58
- Ratio [R-VK4-116] Before Filtration / Eluate, Mean ± SD (rat plasma proteins; nominal 1 μM): 1.60 ± 0.02
- [R-VK4-116] Before Filtration (rat plasma proteins; nominal 1 μM): 1.03 µM and 1.01 µM and 1.02 µM
- [R-VK4-116] In Sephadex G-25 Eluate (rat plasma proteins; nominal 1 μM): 0.632 µM and 0.647 µM
- % remaining Vs T = 0 min ([2]; 0.5 μM, 0 min): 100.0%
- % remaining Vs T = 0 min ([2]; 0.5 μM, 30 min): 86.2%
- % remaining Vs T = 0 min ([2]; 0.5 μM, 60 min): 81.6%
- % remaining Vs T = 0 min ([2]; 0.5 μM, 90 min): 79.9%
- % remaining Vs T = 0 min ([2]; 0.5 μM, 120 min): 78.4%
- % remaining Vs T = 0 min ([2]; 10 μM, 0 min): 100.0%
- % remaining Vs T = 0 min ([2]; 10 μM, 30 min): 92.9%
- % remaining Vs T = 0 min ([2]; 10 μM, 60 min): 87.5%
- % remaining Vs T = 0 min ([2]; 10 μM, 90 min): 87.9%
- % remaining Vs T = 0 min ([2]; 10 μM, 120 min): 77.3%
- CYP2B6 inhibition (CYP2B6; up to 100 μM): did not inhibit CYP significantly
- activity at 20 min, 0.1 µM (CYP2B6; human, probe bupropion): 99.6 ± 7.5%
- activity at 20 min, 0.3 µM (CYP2B6; human, probe bupropion): 90.9 ± 2.5%
- activity at 20 min, 1 µM (CYP2B6; human, probe bupropion): 91.2 ± 1.4%
- activity at 20 min, 3 µM (CYP2B6; human, probe bupropion): 99.8 ± 7.6%
- activity at 20 min, 10 µM (CYP2B6; human, probe bupropion): 97.5 ± 6.6%
- activity at 20 min, 30 µM (CYP2B6; human, probe bupropion): 89.3 ± 1.2%
- activity at 20 min, 60 µM (CYP2B6; human, probe bupropion): 91 ± 0.7%
- activity at 20 min, 100 µM (CYP2B6; human, probe bupropion): 97 ± 4.9%
